In patent US20090186832A1 (priority 2008, published 2009):
Where “and” joins values, the source holds several entries; their conditions need not be identical. Identical values can stand only once. Counter-ions that a name gives are not always drawn. Like-named read-outs stand apart in the source and are kept apart here. Marks after values point to notes of the source that are not given here.

Legend:
[1] = for Meptazinol T>50% Cmax: analyte meptazinol, oral 1 mg meptazinol free base equivalents/kg
[2] = dog, in vivo
[3] = for Simulated gastric fluid (pH 1.1): % remaining after 2 h/37° C. / Simulated intestinal fluid (pH 6.8): % remaining after 2 h/37° C.: simulated gi fluid
[4] = dog, in vivo; for Cmax (mean ng/mL ± SD) / AUC (mean ngh/mL ± SD): po
[5] = cited from earlier work
[6] = plasma meptazinol, oral 1 mg meptazinol free base/kg, group 1 dogs (G1)

CCC1(c2cccc(OC(=O)NC(C)C(=O)NC(C)C(=O)O)c2)CCCCN(C)C1.O=C(O)C(F)(F)F (mixture of isomers) [Meptazinol ala-ala dipeptide TFA salt]
AUC (mean ngh/mL ± SD) [1, 6]: 11.4 ± 2.9 ngh/mL | Cmax (mean ng/mL ± SD) [1, 6]: 2.73 ± 1.28 ng/mL

CCC1(c2cccc(OC(=O)NC(C)C(=O)O)c2)CCCCN(C)C1.Cl (mixture of isomers) [Meptazinol alanine carbamate HCl salt]
Mean relative bioavailability % ([1]; dog, in vivo): 116% | AUC (mean ngh/mL ± SD) ([1]; dog, in vivo, po): 16.3 ± 3.6 | Cmax (mean ng/mL ± SD) ([1]; dog, in vivo, po): 5.2 ± 1.59 ng/mL

CCC1(c2cccc(OC(=O)NC(CC(=O)O)C(=O)O)c2)CCCCN(C)C1.O=C(O)C(F)(F)F (mixture of isomers) [Meptazinol apartic acid carbamate TFA salt]
Mean relative bioavailability % ([1]; dog, in vivo): 273% | AUC (mean ngh/mL ± SD), *AUC0-t ([1]; dog, in vivo, po): 34.8* ± 1.0 | Cmax (mean ng/mL ± SD) ([1]; dog, in vivo, po): 2.65 ± 0.34 ng/mL

CCC1(c2cccc(OC(=O)NC(CC(C)C)C(=O)O)c2)CCCCN(C)C1.O=C(O)C(F)(F)F (mixture of isomers) [Meptazinol leucine carbamate TFA salt]
Mean relative bioavailability % ([1]; dog, in vivo): 70% | AUC (mean ngh/mL ± SD) ([1]; dog, in vivo, po): 9.27 ± 1.6 | Cmax (mean ng/mL ± SD) ([1]; dog, in vivo, po): 3.32 ± 1.4 ng/mL

CCC1(c2cccc(OC(=O)NC(Cc3c[nH]c4ccccc34)C(=O)O)c2)CCCCN(C)C1.O=C(O)C(F)(F)F (mixture of isomers) [Meptazinol tryptophan carbamate TFA salt]
Mean relative bioavailability % ([1]; dog, in vivo): 149% | AUC (mean ngh/mL ± SD), *AUC0-t ([1]; dog, in vivo, po): 19.1* ± 8.9 | Cmax (mean ng/mL ± SD) ([1]; dog, in vivo, po): 8.21 ± 2.56 ng/mL

CCC1(c2cccc(OC(=O)NC(Cc3ccc(O)cc3)C(=O)O)c2)CCCCN(C)C1.O=C(O)C(F)(F)F (mixture of isomers) [Meptazinol tyrosine carbamate TFA salt]
Mean relative bioavailability % ([1]; dog, in vivo): 52% | AUC (mean ngh/mL ± SD), *AUC0-t ([1]; dog, in vivo, po): 6.61* ± 0.70 | Cmax (mean ng/mL ± SD) ([1]; dog, in vivo, po): 2.23 ± 0.16 ng/mL

CCC1(c2cccc(OC(=O)NC(C(=O)OC)C(C)C)c2)CCCCN(C)C1.Cl (mixture of isomers) [Meptazinol valine carbamate methyl ester HCl]
Mean relative bioavailability % ([1]; dog, in vivo): 606% | AUC (mean ngh/mL ± SD) ([1]; dog, in vivo, po): 78.1 ± 17.1 | Cmax (mean ng/mL ± SD) ([1]; dog, in vivo, po): 44.8 ± 8.2 ng/mL

CCC1(c2cccc(OC(=O)NCC(=O)O)c2)CCCCN(C)C1.O=C(O)C(F)(F)F (racemic) [Meptazinol glycine carbamate TFA salt]
Mean relative bioavailability % ([1]; dog, in vivo): 79% | AUC (mean ngh/mL ± SD), *AUC0-t ([1]; dog, in vivo, po): 10.2* ± 3.4 | Cmax (mean ng/mL ± SD) ([1]; dog, in vivo, po): 2.51 ± 0.90 ng/mL

CCC(C)[C@@H](NC(=O)Oc1ccc2c3c1OC1[C@@]4(OC)CC[C@@]5(C[C@@H]4[C@@](C)(O)C(C)(C)C)[C@@H](C2)N(CC2CC2)CC[C@]315)C(=O)O (stereo partly drawn) [Buprenorphine isoleucine carbamate]
Cmax (mean ng/mL ± SD) ([2]; beagle, po): 1.25 ± 0.51 ng/mL | Mean relative bioavailability % ([2]; beagle, po): 110% | AUC (mean ngh/mL ± SD) [2]: 13.6 ± 3.9

COC12CCC3(CC1C(C)(O)C(C)(C)C)C1Cc4ccc(OC(=O)NC(CCCCN)C(=O)O)c5c4C3(CCN1CC1CC1)C2O5 (stereo not drawn) [Buprenorphine lysine carbamate]
AUC (mean ngh/mL ± SD) [2]: 4.70 | Cmax (mean ng/mL ± SD) [2]: 0.25 ± 0.19 ng/mL | Mean relative bioavailability % [2]: 38%

COC12CCC3(CC1C(C)(O)C(C)(C)C)C1Cc4ccc(OC(=O)NC(Cc5ccccc5)C(=O)O)c5c4C3(CCN1CC1CC1)C2O5 (stereo not drawn) [Buprenorphine phenylalanine carbamate]
AUC (mean ngh/mL ± SD) [2]: 9.66 ± 1.92 | Cmax (mean ng/mL ± SD) [2]: 0.86 ± 0.32 ng/mL | Mean relative bioavailability % [2]: 84.5% | pH 10.0 buffer: % remaining after 2 h/20° C. [3]: 74% | Distilled water (pH 5.9): % remaining after 2h/20° C. [3]: 99% | Simulated gastric fluid (pH 1.1): % remaining after 2 h/37° C. [3]: 100% | Simulated intestinal fluid (pH 6.8): % remaining after 2 h/37° C. [3]: 45%

COC12CCC3(CC1C(C)(O)C(C)(C)C)C1Cc4ccc(OC(=O)NC(CC(=O)O)C(=O)O)c5c4C3(CCN1CC1CC1)C2O5 (stereo not drawn) [Buprenorphine-Asp-Carbamate]
pH 10.0 buffer: % remaining after 2 h/20° C. [3]: 85% | Distilled water (pH 5.9): % remaining after 2h/20° C. [3]: 100% | Simulated gastric fluid (pH 1.1): % remaining after 2 h/37° C. [3]: 100% | Simulated intestinal fluid (pH 6.8): % remaining after 2 h/37° C. [3]: 99%

CCC(C)[C@H](NC(=O)Oc1cccc(C2(CC)CCCCN(C)C2)c1)C(=O)O (stereo partly drawn) [Meptazinol isoleucine carbamate TFA salt]
AUC (mean ngh/mL ± SD) [1, 6]: 34.9 ± 11 ngh/mL

CCC1(c2cccc(OC(=O)N[C@H](C(=O)N[C@@H](C)C(=O)O)C(C)C)c2)CCCCN(C)C1 (stereo partly drawn) [Meptazinol val-ala dipeptide TFA salt]
AUC (mean ngh/mL ± SD) [1, 6]: 36.5 ± 13 ngh/mL

CCC1(c2cccc(OC(=O)N[C@H](C(=O)NCC(=O)O)C(C)C)c2)CCCCN(C)C1 (stereo partly drawn) [Meptazinol val-gly dipeptide TFA salt]
AUC (mean ngh/mL ± SD) [1, 6]: 39.9 ± 17 ngh/mL

CCC1(c2cccc(OC(=O)N[C@H](C(=O)N[C@H](C(=O)O)C(C)C)C(C)C)c2)CCCCN(C)C1 (stereo partly drawn) [Meptazinol val-val dipeptide TFA salt, meptazinol-(S)-valine-(S)-valine carbamate trifluoroacetate]
AUC (mean ngh/mL ± SD) [1, 6]: 45.0 ± 12 ngh/mL

CCC1(c2cccc(OC(=O)N[C@H](C(=O)O)C(C)C)c2)CCCCN(C)C1 (stereo partly drawn) [Meptazinol valine carbamate HCl, 2-[3-(3-Ethyl-1-methyl-azepin-3-yl)-phenoxycarbonylamino]-3-methyl-butyric acid hydrochloride]
Meptazinol T>50% Cmax ([1]; individual dogs 1-5, hydrochloride): 0.5 h (3×) and 1.5 h (2×) | Meptazinol T>50% Cmax ([1]; median value): 0.5^a h | AUC (mean ngh/mL ± SD) ([1]; plasma meptazinol, oral 1 mg meptazinol free base/kg, group 2 dogs (G2), hydrochloride): 67.6 ± 9.2 ngh/mL

CCC1(c2cccc(OC(=O)N[C@H](C(=O)O)C(C)C)c2)CCCCN(C)C1 (stereo partly drawn) [Meptazinol valine carbamate TFA salt, meptazinol-(S)-valine carbamate trifluoroacetate]
AUC (mean ngh/mL ± SD) [1, 6]: 67.7 ± 25 ngh/mL

CCC1(c2cccc(OC(=O)N[C@H](C(=O)O)C(C)C)c2)CCCCN(C)C1 (stereo partly drawn) [Meptazinol valine carbamate camsylate]
AUC (mean ngh/mL ± SD) [1, 6]: 62.4 ± 20.4 ngh/mL

CCC1(c2cccc(OC(=O)N[C@H](C(=O)O)C(C)C)c2)CCCCN(C)C1 (stereo partly drawn) [Meptazinol valine carbamate zwitterion]
AUC (mean ngh/mL ± SD) ([1]; plasma meptazinol, oral 1 mg meptazinol free base/kg, group 2 dogs (G2)): 84.9 ± 40.6 ngh/mL

CCC1(c2cccc(OC(=O)N[C@H](C(=O)O)C(C)C)c2)CCCCN(C)C1 (stereo partly drawn) [Meptazinol-Val-Carbamate]
pH 10.0 buffer: % remaining after 2 h/20° C. [3]: 66%

CN1CC[C@]23c4c5ccc(O)c4O[C@H]2C(=O)CC[C@@]3(O)[C@H]1C5 [Oxymorphone HCl, reference compound]
Cmax (mean ng/mL ± SD) ([4]; Beagle, 0.5 mg/kg): 3.8 ± 0.77 ng/mL | AUC (mean ngh/mL ± SD) [4]: 12.2 ± 1.6

CN1CC[C@]23c4c5ccc(OC(=O)NCC(=O)O)c4O[C@H]2C(=O)CC[C@@]3(O)[C@H]1C5.O=C(O)C(F)(F)F [Oxymorphone glycine carbamate TFA]
Mean relative bioavailability % [4]: 554% | AUC (mean ngh/mL ± SD) [4]: 67.9 ± 34.1 | Cmax (mean ng/mL ± SD) [4]: 21 ± 10.9 ng/mL

CSCC[C@@H](NC(=O)Oc1ccc2c3c1OC1C(=O)CC[C@@]4(O)[C@@H](C2)N(C)CC[C@]314)C(=O)O (stereo partly drawn) [Oxymorphone methionine carbamate TFA]
Mean relative bioavailability % ([4]; Beagle, 0.5 mg/kg): 436% | Cmax (mean ng/mL ± SD) ([4]; Beagle, 0.5 mg/kg): 13.8 ± 4.6 ng/mL | AUC (mean ngh/mL ± SD) [4]: 55.4 ± 15.2

CN1CC[C@]23c4c5ccc(OC(=O)N[C@@H](Cc6ccccc6)C(=O)O)c4O[C@H]2C(=O)CC[C@@]3(O)[C@H]1C5.Cl [Oxymorphone phenylalanine carbamate HCl]
Mean relative bioavailability % [4]: 244% | AUC (mean ngh/mL ± SD) [4]: 29.5 ± 2.2 | Cmax (mean ng/mL ± SD) [4]: 5.45 ± 1.32 ng/mL

CN1CC[C@]23c4c5ccc(OC(=O)N[C@@H](Cc6ccc(O)cc6)C(=O)O)c4O[C@H]2C(=O)CC[C@@]3(O)[C@H]1C5.O=C(O)C(F)(F)F [Oxymorphone tyrosine carbamate TFA]
Mean relative bioavailability % [4]: 157% | AUC (mean ngh/mL ± SD) [4]: 17.3 ± 3.0 | Cmax (mean ng/mL ± SD) [4]: 4.62 ± 1.12 ng/mL

CSCC[C@@H](NC(=O)Oc1ccc2c3c1OC1C(=O)CC[C@@]4(O)[C@@H](C2)N(C)CC[C@]314)C(=O)O (stereo partly drawn) [Oxymorphone-Methio-Carbamate]
pH 10.0 buffer: % remaining after 2 h/20° C. [3]: 8% | Distilled water (pH 5.9): % remaining after 2h/20° C. [3]: 100% | Simulated gastric fluid (pH 1.1): % remaining after 2 h/37° C. [3]: 100% | Simulated intestinal fluid (pH 6.8): % remaining after 2 h/37° C. [3]: 96%

CN1CC[C@]23c4c5ccc(OC(=O)N[C@@H](Cc6ccccc6)C(=O)O)c4O[C@H]2C(=O)CC[C@@]3(O)[C@H]1C5 [Oxymorphone-Phe-Carbamate]
pH 10.0 buffer: % remaining after 2 h/20° C. [3]: 17% | Distilled water (pH 5.9): % remaining after 2h/20° C. [3]: 100% | Simulated gastric fluid (pH 1.1): % remaining after 2 h/37° C. [3]: 100% | Simulated intestinal fluid (pH 6.8): % remaining after 2 h/37° C. [3]: 82%

CCC1(c2cccc(O)c2)CCCCN(C)C1 (stereo not drawn) [meptazinol, 3-(3-Ethyl-1-methyl-azepan-3-yl)-phenol]
relative standard deviation (variability in meptazinol levels, mean AUC) ([1]; beagle, dog, in vivo, po): 26% | Meptazinol AUC ([1]; beagle, dog, in vivo, po, 1 mg): 12.8±3.4 | range of observed oral bioavailabilities ([5]; oral, Norbury et al. (1983)): 2-20% | reported mean bioavailability values ([5]; oral, Norbury et al. (1983)): 4-9% | oral dose removed as it passes through the liver (first pass metabolism) ([5]; oral): up to 98% | bioavailability ([5]; rectal formulation, Murray et al. (1989)): 15-20%

Oxymorphone isoleucine carbamate TFA
Mean relative bioavailability % [4]: 570% | AUC (mean ngh/mL ± SD) [4]: 65.8 ± 32 | Cmax (mean ng/mL ± SD) [4]: 17.2 ± 9.9 ng/mL

Oxymorphone valine carbamate TFA
Mean relative bioavailability % [4]: 816% | AUC (mean ngh/mL ± SD) [4]: 51.2 ± 35 | Cmax (mean ng/mL ± SD) [4]: 14.6 ± 8.69 ng/mL

Oxymorphone-Isoleu-Carbamate
pH 10.0 buffer: % remaining after 2 h/20° C. [3]: 36% | Distilled water (pH 5.9): % remaining after 2h/20° C. [3]: 100% | Simulated gastric fluid (pH 1.1): % remaining after 2 h/37° C. [3]: 100% | Simulated intestinal fluid (pH 6.8): % remaining after 2 h/37° C. [3]: 97%

Oxymorphone-Val-Carbamate
pH 10.0 buffer: % remaining after 2 h/20° C. [3]: 32% | Distilled water (pH 5.9): % remaining after 2h/20° C. [3]: 100% | Simulated gastric fluid (pH 1.1): % remaining after 2 h/37° C. [3]: 100% | Simulated intestinal fluid (pH 6.8): % remaining after 2 h/37° C. [3]: 97%
